Assay results from patent US20160375006A1, “USES OF PARALOG-SELECTIVE INHIBITORS OF GSK3 KINASES” (priority 2012, published 2016).
Like-named read-outs stand apart in the source and are kept apart here.

Experiments:
ABL(E255K) = ABL(E255K) (Homo sapiens, UniProt P00519, E255K)
Method: (§1) This was completed utilizing one of two assays depending on the kinase being examined.
(§2) A solution of IMAP binding reagent (IMAP Screening Express kit; Molecular Devices) (60 μL) was added to each well and incubated for 30 minutes.
(§3) A solution of termination buffer (QuickScout Screening assist MSA; Carna Biosciences) (60 μL) was added to each well. The entire reaction mixture was then applied to a LabChip3000 system (Caliper Life Science) and the product and substrate peptide peaks were separated and quantified.

TBK1 = TBK1 (Homo sapiens, UniProt Q9UHD2)
Method: as §1, §2, §3

NEK4 = NEK4 (Homo sapiens, UniProt P51957)
Method: as §1, §2, §3
(§4) The assay utilized was identical to that of the single point inhibitory activity determination (MSA) but run in dose response. […] A solution of termination buffer (QuickScout Screening assist MSA; Carna Biosciences) (60 μL) was added to each well. The entire reaction mixture was then applied to a LabChip3000 system (Caliper Life Science) and the product and substrate peptide peaks were separated and quantified.

CDK4/CycD3 = CDK4/CycD3 (Homo sapiens, UniProt P11802)
Method: as §1, §2, §3

FGR = FGR (Homo sapiens, UniProt P09769)
Method: as §1, §2, §3, §4

EPHB3 = EPHB3 (Homo sapiens, UniProt P54753)
Method: as §1, §2, §3, §4

HIPK3 = HIPK3 (Homo sapiens, UniProt Q9H422)
Method: as §1, §2, §3, §4

CK1γ2 = CK1γ2 (Homo sapiens, UniProt P78368)
Method: as §1, §2, §3, §4

GSK3β = GSK3β (Homo sapiens, UniProt P49841)
Chain of GSK3β (P49841 whole entry): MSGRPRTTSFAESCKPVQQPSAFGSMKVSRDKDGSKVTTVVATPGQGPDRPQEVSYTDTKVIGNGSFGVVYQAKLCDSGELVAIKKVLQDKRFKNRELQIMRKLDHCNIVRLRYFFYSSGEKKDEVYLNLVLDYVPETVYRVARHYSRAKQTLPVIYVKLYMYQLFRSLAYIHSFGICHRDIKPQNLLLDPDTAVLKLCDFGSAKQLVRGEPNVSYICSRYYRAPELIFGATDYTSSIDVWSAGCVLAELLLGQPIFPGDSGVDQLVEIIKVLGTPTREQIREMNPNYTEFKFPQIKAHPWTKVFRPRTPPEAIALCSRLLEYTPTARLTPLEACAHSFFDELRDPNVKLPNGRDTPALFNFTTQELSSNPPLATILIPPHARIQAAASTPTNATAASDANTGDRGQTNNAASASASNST
Method: as §1, §2, §3, §4

BRSK1 = BRSK1 (Homo sapiens, UniProt Q8TDC3)
Method: as §1, §2, §3, §4

AMPKα2/β1/γ1 = AMPKα2/β1/γ1 (Homo sapiens, UniProt P54646)
Method: as §1, §3
The assay utilized was identical to that of the single point inhibitory activity determination (MSA) but run in dose response.

PRKX = PRKX (Homo sapiens, UniProt P51817)
Chain of PRKX (P51817 whole entry): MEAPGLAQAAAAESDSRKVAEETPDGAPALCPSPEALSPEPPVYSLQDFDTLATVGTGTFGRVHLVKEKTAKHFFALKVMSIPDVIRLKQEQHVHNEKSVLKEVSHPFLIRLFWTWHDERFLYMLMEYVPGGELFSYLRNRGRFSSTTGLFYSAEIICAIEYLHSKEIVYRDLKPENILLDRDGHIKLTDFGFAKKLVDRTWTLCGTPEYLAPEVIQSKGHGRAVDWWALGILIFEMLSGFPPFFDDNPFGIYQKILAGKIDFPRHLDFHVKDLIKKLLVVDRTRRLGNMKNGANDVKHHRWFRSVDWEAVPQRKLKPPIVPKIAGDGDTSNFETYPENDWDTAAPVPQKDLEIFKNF
Method: as §1, §2, §3, §4

NPM1-ALK = NPM1-ALK (Homo sapiens, UniProt Q9UM73)
Method: as §1, §2, §3

CDK7/CycH/MAT1 = CDK7/CycH/MAT1 (Homo sapiens, UniProt P50613)
Method: as §1, §2, §3, §4

FMS = FMS (Homo sapiens, UniProt P07333)
Method: as §1, §2, §3, §4

MOS_Cascade = MOS_Cascade (Homo sapiens, UniProt P00540)
Method: as §1, §2, §3, §4

HCK = HCK (Homo sapiens, UniProt P08631)
Method: as §1, §2, §3

IKKβ = IKKβ (Homo sapiens, UniProt O14920)
Method: as §1, §2, §3, §4

FAK = FAK (Homo sapiens, UniProt Q05397)
Method: as §1, §2, §3, §4

BRK = BRK (Homo sapiens, UniProt Q13882)
ABL = ABL (Homo sapiens, UniProt P00519)
Method: as §1, §2, §3, §4

JAK1 = JAK1 (Homo sapiens, UniProt P23458)
Chain of JAK1 (P23458 whole entry): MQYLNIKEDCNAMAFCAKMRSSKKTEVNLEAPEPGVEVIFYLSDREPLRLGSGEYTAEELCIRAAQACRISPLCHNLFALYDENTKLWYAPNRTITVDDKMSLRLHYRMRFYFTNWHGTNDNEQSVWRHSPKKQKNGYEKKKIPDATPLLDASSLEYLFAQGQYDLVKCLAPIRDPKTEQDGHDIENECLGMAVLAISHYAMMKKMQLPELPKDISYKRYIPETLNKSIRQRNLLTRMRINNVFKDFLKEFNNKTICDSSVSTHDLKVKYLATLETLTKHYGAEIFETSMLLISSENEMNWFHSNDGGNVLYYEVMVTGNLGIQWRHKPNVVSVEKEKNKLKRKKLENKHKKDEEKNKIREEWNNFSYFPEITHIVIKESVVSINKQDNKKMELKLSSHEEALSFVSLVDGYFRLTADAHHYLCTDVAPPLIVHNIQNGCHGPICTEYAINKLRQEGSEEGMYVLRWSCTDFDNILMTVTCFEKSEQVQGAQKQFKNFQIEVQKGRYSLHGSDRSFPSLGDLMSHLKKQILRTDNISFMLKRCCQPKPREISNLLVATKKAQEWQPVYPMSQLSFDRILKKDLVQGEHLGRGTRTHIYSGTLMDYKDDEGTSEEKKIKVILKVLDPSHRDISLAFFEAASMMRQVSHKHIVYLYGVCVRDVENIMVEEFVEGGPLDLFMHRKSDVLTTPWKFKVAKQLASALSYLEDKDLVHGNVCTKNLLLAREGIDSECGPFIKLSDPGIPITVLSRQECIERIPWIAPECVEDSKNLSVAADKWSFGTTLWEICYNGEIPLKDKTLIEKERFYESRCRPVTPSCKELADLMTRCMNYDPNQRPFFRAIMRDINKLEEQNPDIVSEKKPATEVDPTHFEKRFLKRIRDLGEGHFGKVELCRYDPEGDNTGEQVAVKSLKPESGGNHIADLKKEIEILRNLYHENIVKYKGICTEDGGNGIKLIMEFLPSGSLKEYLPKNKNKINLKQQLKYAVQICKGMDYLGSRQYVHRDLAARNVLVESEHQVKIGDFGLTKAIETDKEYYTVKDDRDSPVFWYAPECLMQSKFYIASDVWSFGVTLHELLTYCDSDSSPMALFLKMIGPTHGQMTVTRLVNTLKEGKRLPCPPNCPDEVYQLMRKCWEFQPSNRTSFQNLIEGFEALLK
Method: as §1, §2, §3, §4

NuaK1 = NuaK1 (Homo sapiens, UniProt O60285)
Method: as §1, §2, §3, §4

CSK = CSK (Homo sapiens, UniProt P41240)
Method: as §1, §2, §3, §4

EPHA8 = EPHA8 (Homo sapiens, UniProt P29322)
Method: as §1, §2, §3, §4

CLK1 = CLK1 (Homo sapiens, UniProt P49759); assay: Carna kinase panel; assay type: biochemical
Method: as §1, §2, §3

PKCδ = PKCδ (Homo sapiens, UniProt Q05655)
Chain of PKCδ (Q05655 whole entry): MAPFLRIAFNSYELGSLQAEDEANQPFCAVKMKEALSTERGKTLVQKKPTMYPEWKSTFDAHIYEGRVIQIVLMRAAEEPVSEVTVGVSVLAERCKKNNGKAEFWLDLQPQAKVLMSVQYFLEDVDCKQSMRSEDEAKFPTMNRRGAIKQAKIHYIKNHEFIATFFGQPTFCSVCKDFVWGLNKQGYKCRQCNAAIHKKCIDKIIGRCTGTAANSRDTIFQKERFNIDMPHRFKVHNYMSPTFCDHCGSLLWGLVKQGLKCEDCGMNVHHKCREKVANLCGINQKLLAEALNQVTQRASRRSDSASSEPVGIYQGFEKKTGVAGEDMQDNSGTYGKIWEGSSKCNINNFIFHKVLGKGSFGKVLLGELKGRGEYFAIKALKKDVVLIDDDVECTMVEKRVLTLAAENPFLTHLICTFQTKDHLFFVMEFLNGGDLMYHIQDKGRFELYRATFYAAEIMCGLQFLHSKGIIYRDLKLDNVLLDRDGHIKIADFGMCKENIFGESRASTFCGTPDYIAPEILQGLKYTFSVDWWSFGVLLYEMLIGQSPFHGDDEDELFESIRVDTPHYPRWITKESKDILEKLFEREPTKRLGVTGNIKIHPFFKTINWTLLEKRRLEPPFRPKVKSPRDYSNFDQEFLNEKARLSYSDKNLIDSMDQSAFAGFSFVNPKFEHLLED
Method: as §1, §2, §3, §4

CLK2 = CLK2 (Homo sapiens, UniProt P49760)
Method: as §1, §2, §3, §4

PLK3 = PLK3 (Homo sapiens, UniProt Q9H4B4)
Method: as §1, §2, §3

CaMK2δ = CaMK2δ (Homo sapiens, UniProt Q13557)
Method: as §1, §2, §3, §4

CDK2/CycA2 = CDK2/CycA2 (Homo sapiens, UniProt P24941)
Method: as §1, §2, §3, §4

JNK3 = JNK3 (Homo sapiens, UniProt P53779)
Method: as §1, §2, §3

FYN = FYN (Homo sapiens, UniProt P06241)
Method: as §1, §2, §3, §4

SGK2 = SGK2 (Homo sapiens, UniProt Q9HBY8)
Method: as §1, §2, §3, §4

FER = FER (Homo sapiens, UniProt P16591)
Method: as §1, §2, §3

BTK = BTK (Homo sapiens, UniProt Q06187)
Method: as §1, §2, §3, §4

PAK4 = PAK4 (Homo sapiens, UniProt O96013)
Method: as §1, §2, §3

KIT(T670I) = KIT(T670I) (Homo sapiens, UniProt P10721, T670I)
Chain of KIT(T670I) (P10721 26-976 T670I): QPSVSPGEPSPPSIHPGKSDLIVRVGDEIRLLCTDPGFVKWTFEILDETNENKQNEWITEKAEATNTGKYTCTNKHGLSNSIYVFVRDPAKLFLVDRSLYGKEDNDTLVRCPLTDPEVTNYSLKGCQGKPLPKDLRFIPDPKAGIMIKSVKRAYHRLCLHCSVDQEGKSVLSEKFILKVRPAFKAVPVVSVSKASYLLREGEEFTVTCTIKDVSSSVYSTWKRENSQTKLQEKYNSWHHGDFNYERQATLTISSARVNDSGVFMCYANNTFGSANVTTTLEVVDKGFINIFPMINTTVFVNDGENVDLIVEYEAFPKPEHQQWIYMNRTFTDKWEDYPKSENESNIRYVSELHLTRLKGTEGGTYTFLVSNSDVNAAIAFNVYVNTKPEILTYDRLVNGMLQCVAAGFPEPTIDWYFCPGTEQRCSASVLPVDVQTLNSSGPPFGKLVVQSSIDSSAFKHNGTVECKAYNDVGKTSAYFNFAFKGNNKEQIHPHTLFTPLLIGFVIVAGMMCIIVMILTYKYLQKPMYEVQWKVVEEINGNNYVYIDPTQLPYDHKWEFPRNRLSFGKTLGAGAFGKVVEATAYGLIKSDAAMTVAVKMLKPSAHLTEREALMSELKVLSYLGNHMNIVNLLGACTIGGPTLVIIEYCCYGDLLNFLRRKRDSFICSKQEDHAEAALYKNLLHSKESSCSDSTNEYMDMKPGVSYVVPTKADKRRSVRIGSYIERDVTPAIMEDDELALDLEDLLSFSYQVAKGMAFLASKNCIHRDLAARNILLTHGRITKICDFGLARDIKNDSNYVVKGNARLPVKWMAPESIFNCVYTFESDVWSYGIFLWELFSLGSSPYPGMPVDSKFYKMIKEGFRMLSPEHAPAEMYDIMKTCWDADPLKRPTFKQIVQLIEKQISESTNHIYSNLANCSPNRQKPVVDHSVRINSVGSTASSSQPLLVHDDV
Method: as §1, §2, §3, §4

ALK(L1196M) = ALK(L1196M) (Homo sapiens, UniProt Q9UM73, L1196M)
Method: as §1, §2, §3, §4

DDR1 = DDR1 (Homo sapiens, UniProt Q08345)
Chain of DDR1 (Q08345 19-913): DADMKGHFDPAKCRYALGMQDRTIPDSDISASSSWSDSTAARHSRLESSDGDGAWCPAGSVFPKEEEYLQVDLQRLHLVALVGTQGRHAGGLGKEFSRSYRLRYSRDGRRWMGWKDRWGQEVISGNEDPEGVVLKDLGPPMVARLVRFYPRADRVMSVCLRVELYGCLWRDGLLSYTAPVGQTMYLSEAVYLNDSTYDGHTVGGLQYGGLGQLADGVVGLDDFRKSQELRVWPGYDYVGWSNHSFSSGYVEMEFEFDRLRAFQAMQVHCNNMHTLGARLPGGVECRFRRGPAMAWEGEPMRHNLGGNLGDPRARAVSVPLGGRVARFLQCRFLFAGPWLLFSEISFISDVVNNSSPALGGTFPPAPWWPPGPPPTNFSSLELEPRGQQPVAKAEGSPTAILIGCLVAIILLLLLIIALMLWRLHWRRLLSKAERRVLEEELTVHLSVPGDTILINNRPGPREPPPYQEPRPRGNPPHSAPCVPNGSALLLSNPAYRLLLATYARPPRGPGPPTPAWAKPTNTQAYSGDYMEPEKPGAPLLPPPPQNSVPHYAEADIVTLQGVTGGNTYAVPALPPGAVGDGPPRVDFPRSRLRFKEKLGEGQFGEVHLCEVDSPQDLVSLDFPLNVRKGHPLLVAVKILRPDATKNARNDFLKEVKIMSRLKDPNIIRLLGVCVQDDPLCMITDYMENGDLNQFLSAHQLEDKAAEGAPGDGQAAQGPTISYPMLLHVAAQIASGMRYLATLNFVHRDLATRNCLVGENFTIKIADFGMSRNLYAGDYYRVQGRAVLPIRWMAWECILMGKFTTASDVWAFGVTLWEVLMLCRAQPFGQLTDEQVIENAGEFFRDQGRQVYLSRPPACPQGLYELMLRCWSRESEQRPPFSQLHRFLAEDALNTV
Method: as §1, §2, §3, §4

Chain of CDK4/CycD3 (P11802 whole entry): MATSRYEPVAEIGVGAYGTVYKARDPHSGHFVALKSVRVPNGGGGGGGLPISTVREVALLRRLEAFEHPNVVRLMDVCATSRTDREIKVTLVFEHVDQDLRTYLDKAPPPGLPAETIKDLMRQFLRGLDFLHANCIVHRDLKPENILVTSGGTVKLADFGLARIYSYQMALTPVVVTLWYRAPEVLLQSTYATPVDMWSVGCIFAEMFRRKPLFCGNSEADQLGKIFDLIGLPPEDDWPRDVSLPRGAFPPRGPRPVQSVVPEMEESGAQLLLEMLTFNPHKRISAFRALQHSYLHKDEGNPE
Chain of CDK4/CycD3 (P30281 whole entry partner): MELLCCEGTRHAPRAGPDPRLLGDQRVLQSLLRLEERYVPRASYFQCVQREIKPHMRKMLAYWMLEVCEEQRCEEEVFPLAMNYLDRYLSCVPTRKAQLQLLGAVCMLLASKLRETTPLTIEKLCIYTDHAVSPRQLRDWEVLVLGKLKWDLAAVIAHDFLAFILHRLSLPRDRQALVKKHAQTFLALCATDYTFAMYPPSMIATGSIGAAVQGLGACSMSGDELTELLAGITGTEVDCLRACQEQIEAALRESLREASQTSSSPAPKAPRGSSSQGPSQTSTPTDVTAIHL

## CC[C@@]1(c2ccccc2)C2=C(CC(C)(C)CC2=O)Nc2n[nH]cc21 [BRD0705]
ABL(E255K)
  % Inhibition at 10 μM: −0.3%
TBK1
  % Inhibition at 10 μM: 1.7%
NEK4
  % Inhibition at 10 μM: −5.1%
CDK4/CycD3
  % Inhibition at 10 μM: −9.1%
FGR
  % Inhibition at 10 μM: −3.4%
EPHB3
  % Inhibition at 10 μM: −1.3%
HIPK3
  % Inhibition at 10 μM: −7.6%
CK1γ2
  % Inhibition at 10 μM: −11.8%
GSK3β
  % Inhibition at 10 μM: 96.5%
GSK3β; read-out: IC50 GSK3β
  IC50: 488 nM
BRSK1
  % Inhibition at 10 μM: −1.6%
AMPKα2/β1/γ1
  % Inhibition at 10 μM: 5.1%
PRKX
  % Inhibition at 10 μM: −4.7%
NPM1-ALK
  % Inhibition at 10 μM: 3.7%
CDK7/CycH/MAT1
  % Inhibition at 10 μM: 8.3%
FMS
  % Inhibition at 10 μM: −8.2%
MOS_Cascade
  % Inhibition at 10 μM: −1.0%
HCK
  % Inhibition at 10 μM: 1.1%
IKKβ
  % Inhibition at 10 μM: −4.0%
FAK
  % Inhibition at 10 μM: −3.9%
BRK
  % Inhibition at 10 μM: −1.4%
ABL
  % Inhibition at 10 μM: 4.2%
JAK1
  % Inhibition at 10 μM: −1.3%
NuaK1
  % Inhibition at 10 μM: −2.0%
CSK
  % Inhibition at 10 μM: 0.9%
EPHA8
  % Inhibition at 10 μM: 2.9%
CLK1
  % Inhibition at 10 μM: −7.1%
PKCδ
  % Inhibition at 10 μM: −5.5%
CLK2
  % Inhibition at 10 μM: −3.0%
PLK3
  % Inhibition at 10 μM: −12.5%
CaMK2δ
  % Inhibition at 10 μM: −4.4%
CDK2/CycA2; CDK2/CycA2
  % Inhibition at 10 μM: 65.3%
CDK2/CycA2; read-out: IC50 CDK2/CycA2
  IC50: 6.87 µM
JNK3
  % Inhibition at 10 μM: −3.4%
FYN
  % Inhibition at 10 μM: 3.1%
SGK2
  % Inhibition at 10 μM: 0.8%
FER
  % Inhibition at 10 μM: 1.7%
BTK
  % Inhibition at 10 μM: 2.1%
PAK4
  % Inhibition at 10 μM: 33.8%
KIT(T670I)
  % Inhibition at 10 μM: −0.8%
ALK(L1196M)
  % Inhibition at 10 μM: 0.4%
DDR1
  % Inhibition at 10 μM: −2.0%

## CC(C)(C)Cc1[nH]nc2c1[C@](C)(c1ccccc1)C1=C(CC(C)(C)CC1=O)N2 [BRD3731]
ABL(E255K); 10 μM
  % Inhibition 10 μM: 8.3%
TBK1; 10 μM
  % Inhibition 10 μM: −0.5%
NEK4; 10 μM
  % Inhibition 10 μM: −4.8%
CDK4/CycD3; 10 μM
  % Inhibition 10 μM: 18.1%
FGR; 10 μM
  % Inhibition 10 μM: 12.0%
EPHB3; 10 μM
  % Inhibition 10 μM: 0.1%
HIPK3; 10 μM
  % Inhibition 10 μM: 3.2%
CK1γ2; 10 μM
  % Inhibition 10 μM: 3.6%
GSK3β
  % Inhibition 10 μM: 100.7%
  IC50: 27 nM
BRSK1; 10 μM
  % Inhibition 10 μM: 7.9%
AMPKα2/β1/γ1; 10 μM
  % Inhibition 10 μM: 16.7%
PRKX; 10 μM
  % Inhibition 10 μM: −0.2%
NPM1-ALK; 10 μM
  % Inhibition 10 μM: −2.1%
CDK7/CycH/MAT1; 10 μM
  % Inhibition 10 μM: 21.3%
FMS; 10 μM
  % Inhibition 10 μM: 5.2%
MOS_Cascade; 10 μM
  % Inhibition 10 μM: −9.5%
HCK; 10 μM
  % Inhibition 10 μM: 6.6%
IKKβ; 10 μM
  % Inhibition 10 μM: 0.2%
FAK; 10 μM
  % Inhibition 10 μM: 2.3%
BRK; 10 μM
  % Inhibition 10 μM: −5.6%
ABL; 10 μM
  % Inhibition 10 μM: 11.4%
JAK1; 10 μM
  % Inhibition 10 μM: 3.7%
NuaK1; 10 μM
  % Inhibition 10 μM: −0.9%
CSK; 10 μM
  % Inhibition 10 μM: 1.9%
EPHA8; 10 μM
  % Inhibition 10 μM: −1.9%
CLK1; 10 μM
  % Inhibition 10 μM: 3.1%
PKCδ; 10 μM
  % Inhibition 10 μM: 10.7%
CLK2; 10 μM
  % Inhibition 10 μM: 6.1%
PLK3; 10 μM
  % Inhibition 10 μM: 4.0%
CaMK2δ; 10 μM
  % Inhibition 10 μM: −0.3%
CDK2/CycA2; CDK2/CycA2
  IC50: > 10 µM
CDK2/CycA2; CDK2/CycA2, 10 μM
  % Inhibition 10 μM: 36.3%
CDK2/CycA2; IC50 CDK2/CycA2 / IC50 GSK3β
  Fold Selectivity: >370 fold
JNK3; 10 μM
  % Inhibition 10 μM: −2.6%
FYN; 10 μM
  % Inhibition 10 μM: −1.3%
SGK2; 10 μM
  % Inhibition 10 μM: 10.4%
FER; 10 μM
  % Inhibition 10 μM: 6.4%
BTK; 10 μM
  % Inhibition 10 μM: 0.3%
PAK4; 10 μM
  % Inhibition 10 μM: 0.6%
KIT(T670I); 10 μM
  % Inhibition 10 μM: −0.3%
ALK(L1196M); 10 μM
  % Inhibition 10 μM: 3.6%
DDR1; 10 μM
  % Inhibition 10 μM: 7.6%
